Reference: ChEMBL document CHEMBL5537196, “Discovery of KIN-3248, An Irreversible, Next Generation FGFR Inhibitor for the Treatment of Advanced Tumors Harboring FGFR2 and/or FGFR3 Gene Alterations” (J Med Chem, 2024)
pIC50: −log10 of the molar value.

Tests used:
[1] = system: CC-LP-1; experiment: Antiproliferative activity against human CC-LP-1 cells expressing FGFR2 N550K mutant assessed as inhibition of cell growth incubated for 3 days by Cell-titer glo assay; settings: CC-LP-1, 72 h
[2] = Antiproliferative activity against human ICC13-7 cells expressing FGFR2 N550K mutant assessed as inhibition of cell growth incubated for 10 days by Cell-titer glo assay; settings: ICC13-7, 240 h
[3] = system: CC-LP-1; experiment: Antiproliferative activity against human CC-LP-1 cells expressing FGFR2 V565F mutant assessed as inhibition of cell growth incubated for 3 days by Cell-titer glo assay; settings: CC-LP-1, 72 h
[4] = system: RT-112; experiment: Antiproliferative activity against human RT-112 cells expressing FGFR3 N540K mutant assessed as inhibition of cell growth incubated for 5 days by Cell-titer glo assay; settings: RT-112, 120 h
[5] = system: RT-112; experiment: Antiproliferative activity against human RT-112 cells expressing FGFR3 K650M mutant assessed as inhibition of cell growth incubated for 5 days by Cell-titer glo assay; settings: RT-112, 120 h
[6] = system: RT-112; experiment: Antiproliferative activity against human RT-112 cells expressing FGFR3 assessed as inhibition of cell growth incubated for 5 days by Cell-titer glo assay; settings: RT-112, 120 h
[7] = Antiproliferative activity against human ICC13-7 cells expressing FGFR2 V565F mutant assessed as inhibition of cell growth incubated for 10 days by Cell-titer glo assay; settings: ICC13-7, 240 h
[8] = Antiproliferative activity against human ICC13-7 cells assessed as inhibition of cell growth incubated for 3 days by Cell-titer glo assay; settings: ICC13-7, 72 h
[9] = system: CC-LP-1; experiment: Antiproliferative activity against human CC-LP-1 cells assessed as inhibition of cell growth incubated for 3 days by Cell-titer glo assay; settings: CC-LP-1, 72 h
[10] = system: SNU-16; experiment: Antiproliferative activity against human SNU-16 cells assessed as inhibition of cell growth incubated for 5 days by Cell-titer glo assay; settings: SNU-16, 120 h
[11] = system: RT-112; experiment: Antiproliferative activity against human RT-112 cells assessed as inhibition of cell growth incubated for 5 days by Cell-titer glo assay; settings: RT-112, 120 h
[12] = system: RT-112; experiment: Antiproliferative activity against human RT-112 cells expressing FGFR3 V555M mutant assessed as inhibition of cell growth incubated for 5 days by Cell-titer glo assay; settings: RT-112, 120 h
[13] = system: CC-LP-1; experiment: Antiproliferative activity against human CC-LP-1 cells expressing FGFR2 N550H mutant assessed as inhibition of cell growth incubated for 3 days by Cell-titer glo assay; assay type: functional, cell-based; settings: CC-LP-1, 72 h
[14] = Total clearance in Sprague-Dawley rat at 5 mg/kg,iv administrated at 0.25 to 24 hrs by LC-MS/MS analysis; assay type: ADME, organism-based; settings: in vivo, time 0.25-24 hrs
[15] = Total clearance in Beagle dog at 5 mg/kg,iv administrated at 0.25 to 24 hrs by LC-MS/MS analysis; assay type: ADME, organism-based, Canis lupus familiaris; settings: in vivo, time 0.25-24 hrs
[16] = Intrinsic clearance in human hepatocyte measured per 10^6 cells; assay type: ADME, cell-based; settings: hepatocytes, read-out: CLH
[17] = Cmax in Beagle dog at 15 mg/kg,po administrated at 0.25 to 24 hrs by LC-MS/MS analysis; assay type: ADME, organism-based, Canis lupus familiaris; settings: in vivo, time 0.25-24 hrs
[18] = AUC (0 to 24 hrs) in Sprague-Dawley rat at 15 mg/kg,po administrated at 0.25 to 24 hrs by LC-MS/MS analysis; assay type: ADME, organism-based; settings: in vivo, time 0.25-24 hrs
[19] = AUC (0 to 24 hrs) in Beagle dog at 15 mg/kg,po administrated at 0.25 to 24 hrs by LC-MS/MS analysis; assay type: ADME, organism-based, Canis lupus familiaris; settings: in vivo, time 0.25-24 hrs
[20] = Oral bioavailability in Sprague-Dawley rat at 15 mg/kg administrated at 0.25 to 24 hrs by LC-MS/MS analysis; assay type: ADME, organism-based; settings: in vivo, time 0.25-24 hrs
[21] = Half life in Beagle dog at 5 mg/kg,iv administrated at 0.25 to 24 hrs by LC-MS/MS analysis; assay type: ADME, organism-based, Canis lupus familiaris; settings: in vivo, time 0.25-24 hrs
[22] = Cmax in Sprague-Dawley rat at 15 mg/kg,po administrated at 0.25 to 24 hrs by LC-MS/MS analysis; assay type: ADME, organism-based; settings: in vivo, time 0.25-24 hrs
[23] = Oral bioavailability in Beagle dog at 15 mg/kg administrated at 0.25 to 24 hrs by LC-MS/MS analysis; assay type: ADME, organism-based, Canis lupus familiaris; settings: in vivo, time 0.25-24 hrs
[24] = Half life in Sprague-Dawley rat at 5 mg/kg,iv administrated at 0.25 to 24 hrs by LC-MS/MS analysis; assay type: ADME, organism-based; settings: in vivo, time 0.25-24 hrs
[25] = Intrinsic clearance in human liver microsomes; assay type: ADME, Microsome; settings: read-out: CLH
[26] = AUC (0 to 24 hrs) in Beagle dog at 10 mg/kg,po administrated at 0.25 to 24 hrs by LC-MS/MS analysis; assay type: ADME, organism-based, Canis lupus familiaris; settings: in vivo, time 0.25-24 hrs
[27] = Oral bioavailability in Beagle dog at 10 mg/kg administrated at 0.25 to 24 hrs by LC-MS/MS analysis; assay type: ADME, organism-based, Canis lupus familiaris; settings: in vivo, time 0.25-24 hrs
[28] = Cmax in Beagle dog at 10 mg/kg,po administrated at 0.25 to 24 hrs by LC-MS/MS analysis; assay type: ADME, organism-based, Canis lupus familiaris; settings: in vivo, time 0.25-24 hrs

pIC50 [10]	clearance [14] [L/h/kg]	clearance [15] [L/h/kg]	hepatocyte CLint [16] [µL/min/1e6 cells]	AUC(0-t) [18] [µg·h/mL]	bioavailability [20] [%]	half-life [21] [h]	Cmax [22] [µg/mL]	Compound	pIC50 [1]	pIC50 [2]	pIC50 [3]	pIC50 [4]	pIC50 [5]	pIC50 [6]	pIC50 [7]	pIC50 [8]	pIC50 [9]	pIC50 [11]	pIC50 [12]	pIC50 [13]	further results
7.91								CCN1CCN(c2ccc(Nc3cc(N(C)C(=O)Nc4c(Cl)c(OC)cc(OC)c4Cl)ncn3)cc2)CC1 [INFIGRATINIB]	6.36	6.45	< 5.64	6.11	6.66	8.00	< 5.72	8.12	8.14	8.21	6.45	7.54	
8.40	1.5	1.91	12	2.62	27	11.4	0.76	C=CC(=O)N1C[C@@H](n2nc(C#Cc3cc4ncn(C5CC5)c4cc3F)c(C(N)=O)c2NC)C[C@@H]1COC	8.44	8.46	8.82				8.85	8.85	8.64				Cmax [17]: 0.77 µg/mL; AUC(0-t) [19]: 1.7 µg·h/mL; bioavailability [23]: 23.5%; half-life [24]: 8.85 h; microsomal CLint [25]: 97.1 µL/min/mg
	1.57	1.87	6.6	3.02	31.4	6.46	1.72	C=CC(=O)N1C[C@@H](n2nc(C#Cc3ccc4c(c3)ncn4C3CC3)c(C(N)=O)c2NC)C[C@@H]1COC													AUC(0-t) [26]: 0.312 µg·h/mL; bioavailability [27]: 4.6%; Cmax [28]: 0.124 µg/mL; half-life [24]: 4.88 h; microsomal CLint [25]: 47.4 µL/min/mg

Compound	pIC50 [10]	clearance [14] [L/h/kg]	clearance [15] [L/h/kg]	hepatocyte CLint [16] [µL/min/1e6 cells]	AUC(0-t) [18] [µg·h/mL]	bioavailability [20] [%]	half-life [21] [h]	Cmax [22] [µg/mL]	pIC50 [1]	pIC50 [2]	pIC50 [3]	pIC50 [4]	pIC50 [5]	pIC50 [6]	pIC50 [7]	pIC50 [8]	pIC50 [9]	pIC50 [11]	pIC50 [12]	pIC50 [13]	further results
COc1cc(OC)cc(N(CCNC(C)C)c2ccc3ncc(-c4cnn(C)c4)nc3c2)c1 [ERDAFITINIB]	8.57								7.02	6.88	5.86	6.97	7.41	8.62	< 5.55	8.96	8.64	8.89	6.22	7.97	
